The values below come from patent US9656981B2, “Peripherally-acting cannabinoid receptor agonists for chronic pain” (The Regents of the University of California, priority 2012, dated 2017).

SMILES strings stand for the structures.

CB1R, sequence (P21554 whole entry): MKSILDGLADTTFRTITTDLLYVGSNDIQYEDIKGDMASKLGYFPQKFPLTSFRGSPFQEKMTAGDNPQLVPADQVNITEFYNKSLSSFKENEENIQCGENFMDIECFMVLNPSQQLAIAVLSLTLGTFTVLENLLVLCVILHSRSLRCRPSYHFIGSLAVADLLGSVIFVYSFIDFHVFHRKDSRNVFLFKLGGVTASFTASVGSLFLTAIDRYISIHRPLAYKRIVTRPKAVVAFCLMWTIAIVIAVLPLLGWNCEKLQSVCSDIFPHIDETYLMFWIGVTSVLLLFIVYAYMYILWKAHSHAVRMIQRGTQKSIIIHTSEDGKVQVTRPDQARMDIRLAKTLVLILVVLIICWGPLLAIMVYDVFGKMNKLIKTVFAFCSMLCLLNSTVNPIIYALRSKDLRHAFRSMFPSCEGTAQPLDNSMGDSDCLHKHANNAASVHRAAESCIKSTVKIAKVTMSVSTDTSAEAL

For one assay, the target named is CB1R (Homo sapiens, UniProt P21554). The assay is described as follows: CB1R radioligand displacement binding assay (CP55940 radioligand). Particulars: Table 1; CP55940 radioligand; read-out: CB1_KI_CP. As to the method:
Heterologous competition binding assays were performed to calculate receptor affinities. Unlabeled SR141716 or SR144528 were used as appropriate controls for non-specific binding (NSB) in the assay. Calculation of the equilibrium dissociation constant (Ki) was performed using the Cheng-Prusoff equation.
On the technique in general: In a radioligand displacement assay an active substance lowers the binding of a labelled ligand.
For `CCCCCn1cc(C(=O)c2cccc3ccccc23)c2ccccc21` [Compound 1, 3-(naphthalene-1-carbonyl)-1-pentyl-1H-indole, reference compound], the Ki amounted to 0.00431 µM.

`C1=C(CCN2CCOCC2)c2ccccc2/C1=C/c1cccc2ccc3ccccc3c12` [Compound 13, 4-{2-[(1E)-1-(phenanthren-4-ylmethylidene)-1H-inden-3-yl]ethyl} morpholine]: the Ki amounted to 0.0229 µM.

Turning to `Clc1ccccc1/C=C1\C=C(CCN2CCOCC2)c2ccccc21` [Compound 26, 4-{2-[(1E)-1-[(2-chlorophenyl)methylidene]-1H-inden-3-yl]ethyl} morpholine], the Ki was 0.862 µM.

For `C[N+]1(CCC2=C/C(=C\c3cccc4ccccc34)c3ccccc32)CCOCC1` [Compound 35, 4-methyl-4-{2-[(1E)-1-(naphthalen-1-ylmethylidene)-1H-inden-3-yl]ethyl} morpholin-4-ium iodide], the Ki came out at 0.982 µM.

For `CC1=C(CC[N+]2(C)CCOCC2)c2ccccc2/C1=C/c1cccc2ccccc12` [Compound 36, 4-methyl-4-{2-[(1E)-2-methyl-1-(naphthalen-1-ylmethylidene)-1H-inden-3-yl]ethyl} morpholin-4-ium iodide], the Ki is 1.61 µM.

Take `O=C(c1cccc2ccccc12)c1cn(CCN2CCOCC2)c2ccccc12` [Compound 39, 1-[2-(morpholin-4-yl)ethyl]-3-(naphthalene-1-carbonyl)-1H-indole, reference compound]: the Ki was 0.0816 µM.

On to `COc1ccc(C(=O)c2cn(CC[N+]3(C)CCOCC3)c3ccccc23)c2ccccc12` [Compound 41, 4-{2-[3-(4-methoxynaphth-alene-1-carbonyl)-1H-indol-1-yl]ethyl}-4-methylmorpholin-4-ium iodide], for which the Ki was 4.08 µM.

Turning to `COc1ccc(C(=O)c2cn(CCN3CCOCC3)c3ccccc23)c2ccccc12` [Compound 42, 3-(4-methoxynaphtha-lene-1-carbonyl)-1-[2-(morpholin-4-yl)ethyl]-1H-indole, reference compound], the Ki was 0.0881 µM.

As for `Cc1ccc(C(=O)c2cn(CC[N+]3(C)CCOCC3)c3ccccc23)c2ccccc12` [Compound 43, 4-methyl-4-{2-[3-(4-methyl-naphthalene-1-carbonyl)-1H-indol-1-yl]ethyl}morpholin-4-ium iodide], the Ki was found to be 4.17 µM.

As to `Cc1ccc(C(=O)c2cn(CCN3CCOCC3)c3ccccc23)c2ccccc12` [Compound 44, 3-(4-methyl-naphthalene-1-carbonyl)-1-[2-(morpholin-4-yl)ethyl]-1H-indole, reference compound], the Ki amounted to 0.0202 µM.

As for `CCOC(=O)CCCn1cc(C(=O)c2cccc3ccccc23)c2ccccc21` [Compound 50, ethyl 4-[3-(naphthalene-1-carbonyl)-1H-indol-1-yl]butanoate], the Ki was 0.747 µM.

As to `CCOC(=O)CCCCn1cc(C(=O)c2cccc3ccccc23)c2ccccc21` [Compound 53, ethyl 5-[3-(naphthalene-1-carbonyl)-1H-indol-1-yl]pentanoate], the Ki was determined as 1.47 µM.

The same assay, now with this note: read-out: CB1R binding affinity (Ki).
Take `C1=C(CCN2CCOCC2)c2ccccc2/C1=C/c1ccc2c3c(cccc13)CC2` [Compound 12, 4-{2-[(1E)-1-(1,2-dihydroacenaphth-ylen-5-ylmethylidene)-1H-inden-3-yl]ethyl} morpholine]: the Ki was 0.0159 µM.

The target in the next assay is CB2R (Homo sapiens, UniProt P34972). The assay can be described thus: CB2R radioligand displacement binding assay (CP55940 radioligand).
CB2R, sequence (P34972 whole entry): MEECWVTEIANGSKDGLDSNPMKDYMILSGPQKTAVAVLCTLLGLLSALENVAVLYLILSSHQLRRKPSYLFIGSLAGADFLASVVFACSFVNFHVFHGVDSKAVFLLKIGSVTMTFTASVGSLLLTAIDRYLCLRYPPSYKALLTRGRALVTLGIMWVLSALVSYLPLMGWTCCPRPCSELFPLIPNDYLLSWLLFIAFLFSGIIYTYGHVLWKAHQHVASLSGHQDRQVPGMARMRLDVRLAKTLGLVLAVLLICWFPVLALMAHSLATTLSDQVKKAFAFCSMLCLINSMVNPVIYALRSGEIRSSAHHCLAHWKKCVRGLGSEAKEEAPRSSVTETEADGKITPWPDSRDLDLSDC
Conditions: not given
The procedure:
Detailed radioligand displacement assays (using the well-characterized CBR agonist […] as the radioligand) were conducted to determine the affinity (Ki) of the test compounds for CB1R and CB2R as has been previously described by our group^112,113. Heterologous competition binding assays were performed to calculate receptor affinities. Unlabeled SR141716 or SR144528 were used as appropriate controls for non-specific binding (NSB) in the assay. Calculation of the equilibrium dissociation constant (Ki) was performed using the Cheng-Prusoff equation.
`CCCCCn1cc(C(=O)c2cccc3ccccc23)c2ccccc21` [Compound 1, 3-(naphthalene-1-carbonyl)-1-pentyl-1H-indole, reference compound] came in with a Ki of 0.00738 µM.

For the compound `C1=C(CCN2CCOCC2)c2ccccc2/C1=C/c1cccc2ccc3ccccc3c12` [Compound 13, 4-{2-[(1E)-1-(phenanthren-4-ylmethylidene)-1H-inden-3-yl]ethyl} morpholine], the Ki is 0.006 µM.

Consider `CC1=C(CCN2CCOCC2)c2ccccc2/C1=C/c1cccc2ccccc12` [Compound 15, 4-{2-[(1E)-2-methyl-1-(naphthalen-1-ylmethylidene)-1H-inden-3-yl]ethyl} morpholine], for which the Ki was 0.00284 µM.

Regarding `CCCCCCC1=C/C(=C\c2cccc3ccccc23)c2ccccc21` [Compound 21, 1-{[(1E)-3-hexyl-1H-inden-1-ylidene]methyl} naphthalene], the Ki was 1.45 µM.

Turning to `C1=C(CCN2CCOCC2)c2ccccc2/C1=C/c1ccco1` [Compound 31, 4-{2-[(1E)-1-(furan-2-ylmethylidene)-1H-inden-3-yl]ethyl} morpholine], the Ki was found to be 1.26 µM.

Staying with this assay, now noted: Table 1; CP55940 radioligand; read-out: CB2_KI_CP.
For `C1=C(CCN2CCOCC2)c2ccccc2/C1=C/c1ccc2c3c(cccc13)CC2` [Compound 12, 4-{2-[(1E)-1-(1,2-dihydroacenaphth-ylen-5-ylmethylidene)-1H-inden-3-yl]ethyl} morpholine], the Ki came to 0.00422 µM.
